Results from patent publication US9637491B2, “Pyrazolo[4,3-D]pyrimidines as kinase inhibitors” (Origenis GmbH, priority 2012, dated 2017).

target: T1, SYK kinase (Homo sapiens, UniProt P43405); assay: SYK assay (OMNIA Kinase Assay, Invitrogen); format: biochemical; conditions: SYK Activities; 1 mM ATP, 10 μM Omnia Peptide Substrate Tyr 7, 30° C.
T1 construct: purchased Invitrogen, Carlsbad
Summary of the method: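 Continuous-read fluorescence kinase assay: SOX-labelled Tyr 7 peptide (10 μM) with 1 mM ATP and 0.2 mM DTT, 30° C, reaction started by adding SYK. Fluorescence (ex 360/em 485 nm) read every 30 s for 30 min. IC50 from sigmoidal fit of reaction velocity versus inhibitor concentration.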

Row | Compound | IC50
1 | CC(C)c1nc(Nc2cnn(C3CCN(C)CC3)c2)c2[nH]ncc2n1 [Example 184, 5-isopropyl-N-(1-(1-methylpiperidin-4-yl)-1H-pyrazol-4-yl)-1H-pyrazolo[4,3-d]pyrimidin-7-amine] | 0.1 to 1 µM
2 | CC(C)Cn1cc(Nc2nc(-c3cccc(S(N)(=O)=O)c3)nc3cn[nH]c23)cn1 [Example 428, 3-(7-((1-isobutyl-1H-pyrazol-4-yl)amino)-1H-pyrazolo[4,3-d]pyrimidin-5-yl)benzenesulfonamide] | 0.01 to 0.1 µM
3 | COCCn1cc(Nc2nc(-c3ccc4cn[nH]c4c3)nc3cn[nH]c23)cn1 [Example 131, 5-(1H-indazol-6-yl)-N-(1-(2-methoxyethyl)-1H-pyrazol-4-yl)-1H-pyrazolo[4,3-d]pyrimidin-7-amine] | 0.01 to 0.1 µM
4 | CN1C(=O)COc2ccc(Nc3nc(-c4ccc5cn[nH]c5c4)nc4cn[nH]c34)cc21 [Example 470, 6-((5-(1H-indazol-6-yl)-1H-pyrazolo[4,3-d]pyrimidin-7-yl)amino)-4-methyl-2H-benzo[b][1,4]oxazin-3(4H)-one] | 0.1 to 1 µM
5 | Cc1c(Nc2nc(C3CC3)nc3cn[nH]c23)cnn1C(C)C [Example 287, 5-cyclopropyl-N-(1-isopropyl-5-methyl-1H-pyrazol-4-yl)-1H-pyrazolo[4,3-d]pyrimidin-7-amine] | 0.1 to 1 µM
6 | Fc1cc(Nc2nc(C3CC3)nc3cn[nH]c23)ccc1N1CCOCC1 [Example 34, 5-cyclopropyl-N-(3-fluoro-4-morpholinophenyl)-1H-pyrazolo[4,3-d]pyrimidin-7-amine] | 0.1 to 1 µM
7 | c1coc(-c2nc(Nc3cnn(C4CCOCC4)c3)c3[nH]ncc3n2)c1 [Example 117, 5-(furan-2-yl)-N-(1-(tetrahydro-2H-pyran-4-yl)-1H-pyrazol-4-yl)-1H-pyrazolo[4,3-d]pyrimidin-7-amine] | 0.01 to 0.1 µM
8 | COCCCn1cc(Nc2nc(-c3cccs3)nc3cn[nH]c23)cn1 [Example 429, N-(1-(3-methoxypropyl)-1H-pyrazol-4-yl)-5-(thiophen-2-yl)-1H-pyrazolo[4,3-d]pyrimidin-7-amine] | 0.01 to 0.1 µM

More lines, now with the values ahead:

Row | IC50 | Compound
9 | 0.01 to 0.1 µM | NS(=O)(=O)c1cccc(-c2nc(Nc3ccc4c(c3)NC(=O)CCC4)c3[nH]ncc3n2)c1 [Example 525, 3-(7-((2-oxo-2,3,4,5-tetrahydro-1H-benzo[b]azepin-8-yl)amino)-1H-pyrazolo[4,3-d]pyrimidin-5-yl)benzenesulfonamide]
10 | 0.01 to 0.1 µM | OC1CCN(c2ccc(Nc3nc(-c4ccoc4)nc4cn[nH]c34)cc2)CC1 [Example 443, 1-(4-((5-(furan-3-yl)-1H-pyrazolo[4,3-d]pyrimidin-7-yl)amino)phenyl)piperidin-4-ol]
11 | 0.01 to 0.1 µM | CC(C)C(C)n1cc(Nc2nc(-c3ccc4cn[nH]c4c3)nc3cn[nH]c23)cn1 (stereo not drawn) [Example 469, 5-(1H-indazol-6-yl)-N-(1-(3-methylbutan-2-yl)-1H-pyrazol-4-yl)-1H-pyrazolo[4,3-d]pyrimidin-7-amine]
12 | 0.01 to 0.1 µM | CC(C)Cn1cc(Nc2nc(-c3cocn3)nc3cn[nH]c23)cn1 [Example 246, N-(1-isobutyl-1H-pyrazol-4-yl)-5-(oxazol-4-yl)-1H-pyrazolo[4,3-d]pyrimidin-7-amine]
13 | < 0.01 µM | CC(C)n1cc(Nc2nc(-c3cocn3)nc3cn[nH]c23)cn1 [Example 244, N-(1-isopropyl-1H-pyrazol-4-yl)-5-(oxazol-4-yl)-1H-pyrazolo[4,3-d]pyrimidin-7-amine]
14 | < 0.01 µM | COCCn1cc(Nc2nc(-c3nc4ccccc4s3)nc3cn[nH]c23)cn1 [Example 456, 5-(benzo[d]thiazol-2-yl)-N-(1-(2-methoxyethyl)-1H-pyrazol-4-yl)-1H-pyrazolo[4,3-d]pyrimidin-7-amine]
15 | 0.01 to 0.1 µM | OCCN1CCN(c2ccc(Nc3nc(-c4ccoc4)nc4cn[nH]c34)cc2)CC1 [Example 442, 2-(4-(4-((5-(furan-3-yl)-1H-pyrazolo[4,3-d]pyrimidin-7-yl)amino)phenyl)piperazin-1-yl)ethan-1-ol]
